Source: ChEMBL document CHEMBL1155289, “Stimulatory effect of apigenin-6-C-beta-L-fucopyranoside on insulin secretion and glycogen synthesis” (2009)

Experiments:
Assay type in all cases: functional
Rattus norvegicus [1] = assay: Antidiabetic activity against glucose loaded Wistar rat assessed as serum glucose level at 10 mg/kg, po by oral glucose tolerance test
Rattus norvegicus [2] = assay: Antidiabetic activity against glucose loaded Wistar rat assessed as serum glucose level at 10 mg/kg, po after 15 mins by oral glucose tolerance test
Rattus norvegicus [3] = assay: Antidiabetic activity against glucose loaded Wistar rat assessed as serum glucose level at 10 mg/kg, po after 30 mins by oral glucose tolerance test
Rattus norvegicus [4] = assay: Antidiabetic activity against glucose loaded Wistar rat assessed as serum glucose level at 10 mg/kg, po after 60 mins by oral glucose tolerance test

SMILES: Cc1cnc(C(=O)NCCc2ccc(S(=O)(=O)NC(=O)NC3CCCCC3)cc2)cn1 [GLIPIZIDE]
- Activity (Rattus norvegicus [1]): 120 mg/dL
- Activity (Rattus norvegicus [2]): 160 mg/dL
- Activity (Rattus norvegicus [3]): 143 mg/dL
- Activity (Rattus norvegicus [4]): 123 mg/dL
